Measured values: US20250179057A1, “MEK IMMUNE ONCOLOGY INHIBITORS AND THERAPEUTIC USES THEREOF” (Immuneering Corporation, priority 2022, published 2025)
Structures can show the parent of a compound that is named as a salt.

What was measured:
hERG = hERG (Homo sapiens, UniProt Q12809); assay: cell-based
Description: Materials and Methods: CHO cells (transformed with adenovirus 5 DNA; Stably transfected with full length hERG cDNA) were cultured in Ham's F-12 supplemented with 10% fetal bovine serum, 100 U/mL penicillin G sodium, 100 μg/mL streptomycin sulfate and 400 μg/mL Zeocin. Before testing, cells in culture dishes were rinsed with Hank's Balanced Salt Solution, detached with accutase.
HEPES-buffered intracellular solution (Charles River proprietary) for whole cell recordings was loaded into the intracellular compartment of the SP384PE. Extracellular buffer (HB-PS) and Cell suspension (in HB-PS) were pipetted into the extracellular compartment of the SP384PE chip. After establishment of a whole-cell configuration, membrane currents were recorded using patch clamp amplifier in the SP384PE system.
Test article (TA) concentrations (eight (8) concentrations of each test article were evaluated) were applied to naïve cells (n=4, where n=replicates/concentration). Each application consisted of addition of 40 μL of 2× concentrated test article solution to the total 80 μL of final volume of the extracellular well of the SP384PE chip. Duration of exposure to each compound concentration was five (5) minutes.
hERG current was measured using stimulus voltage patterns with fixed amplitudes: activation pre-pulse (TP1) to +40 mV for 2 s and test pulse (TP2) to −40 mV for 2 s from a holding potential of −80 mV. hERG current was measured as the outward peak current at TP2 (tail current). The stimulation was repeated with 0.1 Hz frequency during 2 min as baseline and 5 min after TA application.
Data acquisition and analyses were performed using the SP384PE system operation software. The decrease in current amplitude after TA application was used to calculate the percent block relative to control.
Tonic Block effect was calculated as:
[formula] • where ITP2, baseline and ITP2, TA were the outward peak K^+ currents elicited by the TP2 before application and 5 min after application of a test article, respectively.
The data were corrected for run-down:
[formula] • where % VC and % PC were the mean values of the current block with the vehicle and positive controls, respectively.
Concentration-response data were fitted to an equation of the following form:
[formula] • where [Test] was the concentration of test article, IC50 was the concentration of the test article producing half-maximal block, N was the Hill coefficient, % VC was the mean current block at the vehicle control and % Block was the percentage of ion channel current inhibited at each concentration of a test article. Nonlinear least squares fits were solved with the XLfit add-in for Excel (Microsoft, Redmond, WA).
In this study, hERG Ion channel block of IC50 values were determined. […] In brief, CHO cells were cultured in Ham's F-12 supplemented with 10% fetal bovine serum, 100 U/mL penicillin G sodium, 100 μg/mL streptomycin sulfate and 400 μg/mL Zeocin. Before testing, cells in culture dishes were rinsed with Hank's Balanced Salt Solution, detached with accutase. […] Test article (TA) concentrations were applied to naïve cells (n=4, where n=replicates/concentration). Each application consisted of addition of 40 μL of 2× concentrated test article solution to the total 80 μL of final volume of the extracellular well of the SP384PE chip. Duration of exposure to each compound concentration was five (5) minutes. hERG current was measured using stimulus voltage patterns with fixed amplitudes: activation pre-pulse (TP1) to +40 mV for 2 s and test pulse (TP2) to −40 mV for 2 s from a holding potential of −80 mV. hERG current was measured as the outward peak current at TP2 (tail current). The stimulation was repeated with 0.1 Hz frequency during 2 min as baseline and 5 min after TA application. Data acquisition and analyses were performed using the SP384PE system operation software.

[1] = Hepatocyte stability, beagle dog; assay type: in vitro ADME; conditions: 0.5 million cells/ml; for half-life at 2 μM: beagle dog hepatocytes; for CLint scaled at 2 μM: beagle, dog, hepatocytes
Description: (§1) In this study, human, cynomolgus monkey, beagle dog, wistar hannover rat, and balb/c mouse hepatocyle stability was determined.

[2] = Hepatocyte stability, balb/c mouse; assay type: in vitro ADME; conditions: 0.5 million cells/ml; for CLint scaled at 2 μM: BALB/c, mouse, hepatocytes; for half-life at 2 μM: balb/c mouse hepatocytes
Description: as §1

CYP1A2 = molecular target: T1, CYP1A2 (Homo sapiens, UniProt P05177); assay: CYP450 panel inhibition in human liver microsomes, 1A2 (phenacetin); conditions: for inhibition at 30 min, 10 µM: human, microsomes, pH 7.4; for CYP-1A2 (Phenacetin) mean percentage CYP inhibition: human liver microsomes, 10 μM, substrate phenacetin
T1 sequence (P05177 1-516): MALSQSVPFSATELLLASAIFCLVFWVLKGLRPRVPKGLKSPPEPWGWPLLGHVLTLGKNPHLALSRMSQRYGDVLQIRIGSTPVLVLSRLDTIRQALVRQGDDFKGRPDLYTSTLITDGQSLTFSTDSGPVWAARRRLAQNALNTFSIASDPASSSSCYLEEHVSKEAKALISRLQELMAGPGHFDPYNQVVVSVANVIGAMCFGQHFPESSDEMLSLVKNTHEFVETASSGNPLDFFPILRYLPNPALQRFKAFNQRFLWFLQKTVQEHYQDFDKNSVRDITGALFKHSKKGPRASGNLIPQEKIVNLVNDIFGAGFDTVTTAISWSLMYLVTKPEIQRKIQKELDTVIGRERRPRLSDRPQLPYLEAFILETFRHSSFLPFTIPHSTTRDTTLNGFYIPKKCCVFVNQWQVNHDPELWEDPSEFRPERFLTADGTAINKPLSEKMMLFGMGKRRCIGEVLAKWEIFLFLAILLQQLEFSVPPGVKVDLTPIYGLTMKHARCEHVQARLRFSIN

CYP2C19 = CYP2C19 (Homo sapiens, UniProt P33261); assay: CYP450 panel inhibition in human liver microsomes, 2C19 (mephenytoin); conditions: 10 μM, substrate mephenytoin
CYP2C8 = molecular target: T2, CYP2C8 (Homo sapiens, UniProt P10632); assay: CYP450 panel inhibition in human liver microsomes, 2C8 (amodiaquine); conditions: 10 μM, substrate amodiaquine
T2 sequence (P10632 1-490): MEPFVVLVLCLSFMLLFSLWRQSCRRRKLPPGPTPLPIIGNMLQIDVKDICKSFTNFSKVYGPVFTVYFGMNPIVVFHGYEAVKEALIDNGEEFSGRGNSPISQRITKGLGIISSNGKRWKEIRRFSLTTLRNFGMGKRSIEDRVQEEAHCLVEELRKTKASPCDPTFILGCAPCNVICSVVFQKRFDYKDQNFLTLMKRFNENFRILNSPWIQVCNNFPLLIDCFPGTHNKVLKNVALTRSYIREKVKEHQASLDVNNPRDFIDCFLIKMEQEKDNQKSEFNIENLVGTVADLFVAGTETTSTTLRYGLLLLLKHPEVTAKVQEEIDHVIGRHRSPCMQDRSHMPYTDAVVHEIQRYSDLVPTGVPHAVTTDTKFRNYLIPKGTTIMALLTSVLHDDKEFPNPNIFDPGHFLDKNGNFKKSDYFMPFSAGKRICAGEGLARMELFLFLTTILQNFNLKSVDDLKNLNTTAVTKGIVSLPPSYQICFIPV

[3] = read-out: CLint (L/hr/kg) (converted)
[4] = read-out: IC50 (μM), hERG ion channel block, Example 46, 5 min exposure per concentration

CYP2C19, sequence (P33261 whole entry): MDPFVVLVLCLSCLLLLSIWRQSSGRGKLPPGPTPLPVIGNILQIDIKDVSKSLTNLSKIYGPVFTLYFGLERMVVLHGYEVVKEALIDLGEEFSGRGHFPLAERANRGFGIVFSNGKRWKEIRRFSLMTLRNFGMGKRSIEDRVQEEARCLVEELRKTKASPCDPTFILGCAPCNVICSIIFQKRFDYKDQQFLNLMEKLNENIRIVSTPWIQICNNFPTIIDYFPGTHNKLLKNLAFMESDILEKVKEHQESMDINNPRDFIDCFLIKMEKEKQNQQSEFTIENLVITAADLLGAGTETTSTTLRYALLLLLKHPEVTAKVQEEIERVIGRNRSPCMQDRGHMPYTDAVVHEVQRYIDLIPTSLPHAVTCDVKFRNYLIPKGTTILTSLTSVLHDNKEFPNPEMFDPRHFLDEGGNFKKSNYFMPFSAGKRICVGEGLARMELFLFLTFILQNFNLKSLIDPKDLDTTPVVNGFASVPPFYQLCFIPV
hERG, sequence (Q12809 whole entry): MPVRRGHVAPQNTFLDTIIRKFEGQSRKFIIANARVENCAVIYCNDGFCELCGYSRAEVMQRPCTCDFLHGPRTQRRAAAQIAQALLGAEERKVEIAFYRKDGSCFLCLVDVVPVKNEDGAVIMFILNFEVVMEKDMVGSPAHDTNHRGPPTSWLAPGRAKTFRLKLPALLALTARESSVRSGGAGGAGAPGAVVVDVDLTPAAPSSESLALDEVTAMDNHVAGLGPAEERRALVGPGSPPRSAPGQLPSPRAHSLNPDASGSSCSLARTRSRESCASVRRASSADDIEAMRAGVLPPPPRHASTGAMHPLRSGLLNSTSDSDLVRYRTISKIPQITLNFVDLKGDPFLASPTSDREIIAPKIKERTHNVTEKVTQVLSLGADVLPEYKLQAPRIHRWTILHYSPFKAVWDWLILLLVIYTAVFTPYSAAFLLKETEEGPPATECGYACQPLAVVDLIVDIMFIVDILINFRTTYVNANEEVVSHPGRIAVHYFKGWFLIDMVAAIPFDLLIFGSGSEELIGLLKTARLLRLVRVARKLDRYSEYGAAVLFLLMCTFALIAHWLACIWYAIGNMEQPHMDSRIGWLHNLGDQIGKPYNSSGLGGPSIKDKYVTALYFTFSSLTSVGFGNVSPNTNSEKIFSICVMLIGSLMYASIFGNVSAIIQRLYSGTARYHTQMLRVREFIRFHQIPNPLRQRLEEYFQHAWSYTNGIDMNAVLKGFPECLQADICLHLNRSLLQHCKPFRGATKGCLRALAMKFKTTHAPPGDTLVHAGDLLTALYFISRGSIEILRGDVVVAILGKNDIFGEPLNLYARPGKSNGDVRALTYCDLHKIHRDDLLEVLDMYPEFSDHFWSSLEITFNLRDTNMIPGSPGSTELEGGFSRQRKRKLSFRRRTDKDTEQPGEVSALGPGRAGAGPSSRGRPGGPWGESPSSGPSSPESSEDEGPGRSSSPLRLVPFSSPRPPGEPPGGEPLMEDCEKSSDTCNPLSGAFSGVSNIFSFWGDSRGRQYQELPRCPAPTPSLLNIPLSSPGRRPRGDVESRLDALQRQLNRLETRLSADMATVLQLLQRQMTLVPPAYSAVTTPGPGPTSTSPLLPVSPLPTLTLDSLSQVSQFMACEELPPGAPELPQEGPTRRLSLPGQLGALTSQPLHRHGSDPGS

Structure (SMILES)	IC50 (hERG)	half-life at 2 μM [1]	CLint scaled at 2 μM [1, 3]	CLint scaled at 2 μM ([1]; read-out: CLint (mL/min/kg))	CLint scaled at 2 μM [2, 3]	CLint scaled at 2 μM ([2]; read-out: CLint (mL/min/kg))	half-life at 2 μM [2]	inhibition at 30 min, 10 µM (CYP1A2)	IC50 (hERG; [4])	CYP-2C19 (Mephenytoin) mean percentage CYP inhibition (CYP2C19)	CYP-1A2 (Phenacetin) mean percentage CYP inhibition (CYP1A2)	CYP-2C8 (Amodiaquine) mean percentage CYP inhibition (CYP2C8)	IC50 at 5 min (hERG; human)
CNS(=O)(=O)Nc1cccc(Cc2c(CN3CCNCC3)c3cc(Cl)c(OC(=O)N(C)C)cc3oc2=O)c1Cl [Compound 256, 6-chloro-3-(2-chloro-3-((N-methylsulfamoyl)amino)benzyl)-2-oxo-4-(piperazin-1-ylmethyl)-2H-chromen-7-yl dimethylcarbamate hydrochloride]	21.6 µM	2.98 h	2.5 L/h/kg	2.5 L/h/kg	4.98 L/h/kg	4.98 L/h/kg	3.28 h	6.2%					
CNS(=O)(=O)Nc1nccc(Cc2c(CN(C)C)c3ccc(OC(=O)N(C)C)cc3oc2=O)c1F [Compound 124]									4.2 µM	50.6%	9.9%	59.0%	
CNS(=O)(=O)Nc1cccc(Cc2c(CN(C)C)c3ccc(OC(=O)N(C)C)cc3oc2=O)c1F [Compound 9]									22.4 µM	17.4%	2.8%	15.5%	
CNS(=O)(=O)Nc1cccc(Cc2c(CN(C)C)c3ccc(OC(=O)N(C)C)cc3oc2=O)c1Cl [Compound 274, 3-(2-chloro-3-((N-methylsulfamoyl)amino)benzyl)-4-((dimethylamino)methyl)-2-oxo-2H-chromen-7-yl dimethylcarbamate]	> 30 µM	2.12 h	3.52 L/h/kg	3.52 L/h/kg	5.23 L/h/kg	5.23 L/h/kg	3.13 h	-3.4%					
Cn1cnc2c(F)c(Nc3ccc(Br)cc3Cl)c(C(=O)NOCCO)cc21 [Reference-1, Selumetinib]													> 30 µM
CNS(=O)(=O)Nc1cccc(Cc2c(CN3CCNCC3)c3ccc(OC(=O)N(C)C)cc3oc2=O)c1Cl [Compound 246, 3-(2-chloro-3-((N-methylsulfamoyl)amino)benzyl)-2-oxo-4-(piperazin-1-ylmethyl)-2H-chromen-7-yl dimethylcarbamate hydrochloride]	> 30 µM	6.07 h	1.23 L/h/kg	1.23 L/h/kg	3.62 L/h/kg	3.62 L/h/kg	4.53 h	-3.7%					
CNS(=O)(=O)Nc1cccc(Cc2c(CN(C)C)c3cc(F)c(OC(=O)N(C)C)cc3oc2=O)c1F [Compound 25]										26.5%	7.9%	77.2%	
CCN(C)Cc1c(Cc2cccc(NS(=O)(=O)NC)c2F)c(=O)oc2cc(OC(=O)N(C)C)c(F)cc12 [Compound 238]	19.4 µM	1.19 h	6.28 L/h/kg	6.3 L/h/kg	6.57 L/h/kg	6.6 L/h/kg	2.48 h						
CNS(=O)(=O)Nc1cccc(Cc2c(CN3CCNCC3)c3cc(F)c(OC(=O)N(C)C)cc3oc2=O)c1F [Compound 134]										20.6%	−0.9%	78.8%	
CCS(=O)(=O)Nc1cccc(Cc2c(CN(C)C)c3ccc(OC(=O)N(C)C)cc3oc2=O)c1F [Compound 120]										14.2%	−3.7%	21.9%	
CCS(=O)(=O)Nc1cccc(Cc2c(CN3CCNCC3)c3cc(Cl)c(OC(=O)N(C)C)cc3oc2=O)c1Cl [Compound 257, 6-chloro-3-(2-chloro-3-(ethylsulfonamido)benzyl)-2-oxo-4-(piperazin-1-ylmethyl)-2H-chromen-7-yl dimethylcarbamate hydrochloride]	8.4 µM	1.88 h	3.96 L/h/kg	3.97 L/h/kg	4.78 L/h/kg	4.78 L/h/kg	3.43 h	9.9%					
CCN(C)Cc1c(Cc2cccc(NS(=O)(=O)NC)c2Cl)c(=O)oc2cc(OC(=O)N(C)C)ccc12 [Compound 245, 3-(2-chloro-3-((N-methylsulfamoyl)amino)benzyl)-4-((ethyl(methyl)amino)methyl)-2-oxo-2H-chromen-7-yl dimethylcarbamate]	16.1 µM	0.953 h	7.81 L/h/kg	7.8 L/h/kg	7.54 L/h/kg	7.56 L/h/kg	2.17 h	-0.3%					
CCCS(=O)(=O)Nc1cccc(Cc2c(CN3CCNCC3)c3cc(Cl)c(OC(=O)N(C)C)cc3oc2=O)c1F [Compound 167]									1.5 µM	67.1%	10.8%	61.8%	
